Results on seven molecules are retold here after patent US6413974B1, “6,9,-disubstituted 2-[trans-(4-aminocyclohexyl) amino] purines” (Aventis Pharmaceuticals Inc., priority 1998, dated 2002).

Each structure is given as a SMILES string. pIC50: −log10 of the molar value. Several values for one entry are separate records, joined by “and”; a condition that tells them apart may be missing. Equal entries are not always repeated. Structures can show the parent of a compound that is named as a salt. Where two headings read alike, the source gives them in different places.

One assay has as its system PC-3. The assay can be described thus: In vitro tumor cell proliferation, PC-3. It counts as cell-based, human. To be noted: read-out: In vitro Tumor Cell Proliferation (IC50, μM) Prostate PC-3. In outline: (§1)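 Viable (trypan blue-excluding) cells plated and left overnight at 37° C, then exposed to drug for 3 days, refed with fresh drug-containing medium for 4 more days. TCA-fixed cells stained with 0.4% sulforhodamine B; alternatively, CyQUANT read after 3 days of drug and freezing at −80° C.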

A further assay has as its target T1, cdk2/cyclin E (Homo sapiens, UniProt P24941).
T1 construct: made in house; host or cells: insect cells (baculovirus co-infection)
The assay can be described thus: Cyclin-Dependent Kinase 2 Assay (cdk-2 inhibition). The class given is biochemical. The note with it: GST-Rb substrate, 30 min at 30° C. In outline:
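GST-Rb bound to glutathione-Sepharose beads (0.5 μg/well) as substrate in 50 mM HEPES pH 7.5, 10 mM MgCl2, 1 mM EGTA. Recombinant cdk2/cyclin E at 0.1 μg per 100 μl, 30 min at 30 °C. Reaction stopped by filtration, TNEN washes, scintillation counting.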

The subject of the next assay is HCT-15. The assay can be described thus: In vitro tumor cell proliferation, HCT-15. The class given is cell-based, human. The note with it: read-out: In vitro Tumor Cell Proliferation (IC50, μM) Colon HCT-15. The procedure:
(§2) The proliferation of tumor cells was measured using a sulforhodamine B assay as described in Skehan, P., et al., J. Natl. Cancer Inst. […] Tumor cells were harvested with trypsin-EDTA, cells that excluded trypan blue were counted, added to 96-well plates and incubated overnight at 37° C. Drug was added to the wells following dilution in culture medium. Three days later, the medium was removed and replenished with medium containing fresh drug and incubated an additional 4 days. The cells were then fixed with 0.1 ml 10% trichloroacetic acid for 60 min at 4° C. The plates were rinsed five times with tap water, air-dried and stained for 30 min with 0.4% sulforhodamine B in 1% acetic acid and air-dried.
(§3) Alternatively, the CyQUANT cell proliferation assay was used to quantify tumor cell proliferation. Tumor cells were harvested with trypsin-EDTA, cells that excluded trypan blue were counted, added to 96-well plates and incubated overnight at 37° C. Drug was added to the wells following dilution in culture medium. Three days later the medium was removed and the plates frozen at −80° C. for at least 30 minutes.

The next assay concerns DMS-114. The assay can be described thus: In vitro tumor cell proliferation, DMS-114. To be noted: read-out: In vitro Tumor Cell Proliferation (IC50, μM) Lung DMS-114. It counts as cell-based, human. In outline:
as §1

The test system of the next assay is DU 145. The assay can be described thus: In vitro tumor cell proliferation, DU 145. The class given is cell-based, human. In outline:
as §1

For a further assay, the system named is MCF-7. The assay can be described thus: In vitro tumor cell proliferation, MCF-7. The class given is cell-based, human. The note with it: read-out: In vitro Tumor Cell Proliferation (IC50, μM) Breast MCF-7. The procedure:
as §2, §3
MCF7 is a human breast adenocarcinoma, hormone-dependent (HTB 22);

The next assay relates to A549. The assay can be described thus: In vitro tumor cell proliferation, A549. To be noted: read-out: In vitro Tumor Cell Proliferation (IC50, μM) Lung A549. It counts as cell-based, human. In outline: as §1
The test system of the next assay is HT-29. The assay can be described thus: In vitro tumor cell proliferation, HT-29. The note with it: read-out: In vitro Tumor Cell Proliferation (IC50, μM) Colon HT-29 (converted). It counts as cell-based, human. The method in brief:
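HT-29 human colon adenocarcinoma cells plated overnight at 37° C., then exposed to drug for 3 days, medium with fresh drug replaced for a further 4 days. Cells fixed with 10% TCA and stained with 0.4% sulforhodamine B; alternatively, CyQUANT read after 3 days of drug exposure.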

For a further assay, the system named is MDA-MB-231. The assay can be described thus: In vitro tumor cell proliferation, MDA-MB-231. It counts as cell-based, human. To be noted: read-out: In vitro Tumor Cell Proliferation (IC50, μM) Breast MDA-MB-231. The method in brief:
as §1

The target of another assay is T2, cdk4/cyclin D1 (Homo sapiens, UniProt P11802).
T2 construct: made in house; host or cells: Sf9 insect cells (Bac-to-Bac baculovirus, pFastBac)
T2 sequence (P11802 whole entry): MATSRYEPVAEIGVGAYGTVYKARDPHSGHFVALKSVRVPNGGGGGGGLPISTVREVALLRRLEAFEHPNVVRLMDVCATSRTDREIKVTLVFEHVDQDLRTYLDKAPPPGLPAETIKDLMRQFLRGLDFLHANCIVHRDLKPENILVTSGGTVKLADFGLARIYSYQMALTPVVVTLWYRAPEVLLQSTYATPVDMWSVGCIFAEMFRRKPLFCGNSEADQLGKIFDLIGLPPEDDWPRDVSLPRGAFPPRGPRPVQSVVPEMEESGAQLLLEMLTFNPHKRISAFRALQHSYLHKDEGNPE
T2 sequence (P24385 whole entry partner): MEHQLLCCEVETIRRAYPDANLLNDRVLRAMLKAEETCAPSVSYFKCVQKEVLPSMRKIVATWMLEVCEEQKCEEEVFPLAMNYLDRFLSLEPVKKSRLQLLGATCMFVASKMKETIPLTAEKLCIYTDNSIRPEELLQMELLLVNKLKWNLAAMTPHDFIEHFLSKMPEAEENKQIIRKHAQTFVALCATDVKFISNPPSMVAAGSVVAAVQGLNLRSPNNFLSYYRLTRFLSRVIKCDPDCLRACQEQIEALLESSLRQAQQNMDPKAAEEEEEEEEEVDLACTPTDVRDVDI
The assay can be described thus: Cyclin-dependent kinase 4 Assay. The note with it: cdk4/cyclin D1, GST-Rb substrate, 10 μM ATP, 30 min at 37° C.; read-out: CDK4 Inhibition IC50. The class given is biochemical. In outline:
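Insect-cell lysate of coexpressed human cdk4/cyclin D1 (0.1 μg) phosphorylated bead-bound GST-Rb (0.5 μg) in 50 mM HEPES pH 7.5, 10 mM MgCl2, 1 mM EGTA for 30 min at 37 °C. Filters were washed with TNEN and scintillation-counted; IC50 values derived.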

The mark [1] stands for this setting: Homo sapiens, PC-3, values without *.
The mark [2] stands for this setting: values without *, dihydrochloride.
Where [3] appears, read: Homo sapiens, HCT-15, values without *.
Where [4] appears, read: Homo sapiens, DMS-114, values without *.
Where [5] appears, read: Homo sapiens, DU-145, values without *, read-out: In vitro Tumor Cell Proliferation (IC50, μM) Prostate DUI45.
Setting [6] is: values without *, dihydrochloride, read-out: In vitro Tumor Cell Proliferation (IC50, μM) Prostate DUI45.
Where [7] appears, read: Homo sapiens, MCF7, values without *.
The mark [8] stands for this setting: Homo sapiens, A549, values without *.
Setting [9] is: Homo sapiens, HT-29, values without *.
[10] abbreviates: Homo sapiens, MDA-MB-231, values without *.

On to `N[C@H]1CC[C@H](Nc2nc(NCC3CCCCO3)c3ncn(C4CCCC4)c3n2)CC1` (relative stereo) [Example 30, 2-[Trans-(4-aminocyclohexyl)amino]-6-[(2-tetrahydropyranyl)methylamino]-9-cyclopentylpurine dihydrochloride], for which the IC50 with PC-3 (setting [1]) stood at 1.9 µM; with PC-3 (setting [2]), 2.3 µM; in the assay with HCT-15 (setting [3]) it was 21 µM; with HCT-15 (setting [2]) it was 22 µM; in the assay on DMS-114 (setting [4]), 2.9 µM; in the assay with DMS-114 (setting [2]), 3.7 µM. Besides, the IC50 with DU 145 (setting [5]) came to 3.3 µM; in the assay with DU 145 (setting [6]), 4 µM; in the assay on MCF-7 (setting [7]), 2.5 µM; with MCF-7 (setting [2]) it was 3.1 µM; in the assay with A549 (setting [8]), 2.5 µM; in the assay on A549 (setting [2]), 3.1 µM. The IC50 in the assay with HT-29 (setting [9]) is 5.3 µM; in the assay with HT-29 (setting [2]) it was 7.9 µM; in the assay with MDA-MB-231 (setting [10]), 6.4 µM; with MDA-MB-231 (setting [2]), 8.6 µM. Further, the pIC50 is 6.90 against cdk2/cyclin E and 6.22 on cdk4/cyclin D1.
As to `N[C@H]1CC[C@H](Nc2nc(NCc3cccc(I)c3)c3ncn(C4CCCC4)c3n2)CC1` [Example 1, 2-[Trans-(4-aminocyclohexyl)amino]-6-(3-iodobenzylamino)-9-cyclopentylpurine dihydrochloride], the IC50 with PC-3 (setting [1]) was 1.9 µM; with PC-3 (setting [2]), 1.1 µM and 1.2 µM; in the assay with HCT-15 (setting [3]), 2.2 µM; in the assay with HCT-15 (setting [2]), 1.9 µM; in the assay with DMS-114 (setting [4]), 1.2 µM; in the assay with DMS-114 (setting [2]), 0.9 µM. Also, the IC50 is 2 µM in the assay with DU 145 (Homo sapiens, DU-145, read-out: In vitro Tumor Cell Proliferation (IC50, μM) Prostate DUI45, values without *); 1.6 µM and 1.2 µM in the assay with DU 145 (read-out: In vitro Tumor Cell Proliferation (IC50, μM) Prostate DUI45, values without *, dihydrochloride); 0.7 µM in the assay with MCF-7 (setting [7]); 0.6 µM with MCF-7 (setting [2]); 1.1 µM in the assay on A549 (setting [8]); 1 µM in the assay with A549 (setting [2]). For the same molecule, the IC50 was 0.9 µM with HT-29 (setting [9]); 1 µM and 1.6 µM with HT-29 (setting [2]); 1.1 µM in the assay on MDA-MB-231 (setting [10]); 0.8 µM with MDA-MB-231 (setting [2]). In addition, the pIC50 against cdk2/cyclin E was 7.30 and 7.15 and 7.07 and 7.43 and 7.26 and 7.19; on cdk4/cyclin D1, 5.70.
`CC(C)n1cnc2c(NCC3CC3)nc(N[C@H]3CC[C@H](N)CC3)nc21` [Example 32, 2-[Trans-(4-aminocyclohexyl)amino]-6-[(cyclopropyl)methylamino]-9-(2-propyl)purine dihydrochloride]: the IC50 is 9.7 µM in the assay on PC-3 (setting [1]); 6.9 µM in the assay with PC-3 (setting [2]); over 20 µM with HCT-15 (setting [3]); 24 µM in the assay with HCT-15 (setting [2]); 17 µM in the assay on DU 145 (setting [5]); 10 µM in the assay with DU 145 (setting [6]). Moreover, the IC50 is 9.3 µM with MCF-7 (setting [7]); 5.3 µM in the assay with MCF-7 (setting [2]); 10 µM with A549 (setting [2]); 11 µM in the assay with HT-29 (setting [2]); 16 µM with MDA-MB-231 (setting [10]); 8.1 µM in the assay on MDA-MB-231 (setting [2]). Also, the pIC50 against cdk2/cyclin E was 6.68 and 7.02.
On to `N[C@H]1CC[C@H](Nc2nc(NCc3ccc(Cl)cc3F)c3ncn(C4CCCC4)c3n2)CC1` [Example 40, 2-[Trans-(4-aminocyclohexyl)amino]-6-[(4-chloro-2-fluorobenzyl)amino]-9-cyclopentylpurine dihydrochloride], for which the pIC50 on cdk2/cyclin E was 6.72; at cdk4/cyclin D1 it was 5.51 and 6.00. Further, the IC50 in the assay with HCT-15 (setting [3]) amounted to 4.2 µM; with HCT-15 (setting [2]) it was 3.6 µM; with DMS-114 (setting [4]) it was 2.3 µM; with DMS-114 (setting [2]), 2 µM; with DU 145 (setting [5]), 2 µM; with DU 145 (setting [6]) it was 3.5 µM. The IC50 with MCF-7 (setting [7]) is 1.7 µM; in the assay on MCF-7 (setting [2]), 3.3 µM; in the assay on A549 (setting [8]), 2.01 µM; in the assay on A549 (setting [2]) it was 3.6 µM; in the assay with HT-29 (setting [9]), 1.6 µM; with HT-29 (setting [2]), 3.2 µM. Besides, the IC50 in the assay with MDA-MB-231 (setting [10]) amounted to 3.1 µM; with MDA-MB-231 (setting [2]), 3.5 µM.
Take `N[C@H]1CC[C@H](Nc2nc(NCc3ccccc3)c3ncn(C4CCCC4)c3n2)CC1` [Example 47, 2-[Trans-(4-aminocyclohexyl)amino]-6-[benzylamino]-9-cyclopentylpurine dihydrochloride]: the IC50 in the assay on PC-3 (setting [1]) is 0.93 µM; in the assay with PC-3 (setting [2]) it was 1.3 µM; in the assay with HCT-15 (setting [3]), 5.5 µM; in the assay with HCT-15 (setting [2]), 6.1 µM; with DMS-114 (setting [2]), 1.3 µM; with MCF-7 (setting [7]), 1 µM. Also, the IC50 in the assay on MCF-7 (setting [2]) is 1.7 µM; in the assay on A549 (setting [8]) it was 1.7 µM; in the assay with HT-29 (setting [9]) it was 2.2 µM; in the assay with HT-29 (setting [2]) it was 2.7 µM.
`N[C@H]1CC[C@H](Nc2nc(NCc3ccc(Cl)cc3Cl)c3ncn(C4CCCC4)c3n2)CC1` [Example 48, 2-[Trans-(4-aminocyclohexyl)amino]-6-[(2,4-dichlorobenzyl)amino]-9-cyclopentylpurine dihydrochloride]: the IC50 was 2 µM in the assay on PC-3 (setting [1]); 1.9 µM and 1.6 µM with PC-3 (setting [2]); 3.1 µM with HCT-15 (setting [3]); 3.7 µM and 3.4 µM in the assay on HCT-15 (setting [2]); 1.8 µM in the assay on DMS-114 (setting [4]); 1.9 µM and 2 µM and 1.4 µM in the assay on DMS-114 (setting [2]). The IC50 was 3.2 µM with DU 145 (setting [5]); 3.4 µM and 2.8 µM and 2.5 µM in the assay with DU 145 (setting [6]); 2.2 µM in the assay with A549 (setting [8]); 2.3 µM and 2.1 µM in the assay with A549 (setting [2]); 2.8 µM in the assay on HT-29 (setting [9]); 2.7 µM and 2.4 µM in the assay with HT-29 (setting [2]). Besides, the IC50 with MDA-MB-231 (setting [10]) was 3 µM; in the assay on MDA-MB-231 (setting [2]) it was 3.1 µM and 2 µM and 1.8 µM. Besides, the pIC50 at cdk2/cyclin E is 6.10; on cdk4/cyclin D1, 5.36 and 5.28.
For `N[C@H]1CC[C@H](Nc2nc(NCc3ccc(F)cc3)c3ncn(C4CCCC4)c3n2)CC1` [Example 50, 2-[Trans-(4-aminocyclohexyl)amino]-6-[(4-fluorobenzyl)amino]-9-cyclopentylpurine dihydrochloride], the IC50 was found to be 2 µM in the assay on PC-3 (setting [1]); 2.3 µM in the assay with PC-3 (setting [2]); 7.4 µM in the assay with HCT-15 (setting [3]); 7.7 µM with HCT-15 (setting [2]); 3.7 µM in the assay with DMS-114 (setting [4]); 2.4 µM with DMS-114 (setting [2]). The IC50 in the assay on DU 145 (setting [5]) was 1.9 µM; in the assay with DU 145 (setting [6]) it was 3.3 µM; with MCF-7 (setting [7]), 1.9 µM; in the assay with MCF-7 (setting [2]), 3.3 µM; in the assay on HT-29 (setting [9]), 4 µM; in the assay with HT-29 (setting [2]) it was 4.8 µM. For the same molecule, the figures for the IC50 in the assay with MDA-MB-231 (setting [10]) and in the assay on MDA-MB-231 (setting [2]) were 3.2 µM and 4.5 µM, respectively. For the same molecule, the pIC50 at cdk2/cyclin E is 7.03; at cdk4/cyclin D1 it was 5.11 and 5.51.

The term pIC50 denotes −log10 of the IC50, conventionally taken in molar units.
